Values quoted from earlier work in patent EP4599698A1, “PRODUCTS COMPRISING SENSORY AGENTS” (Nicoventures Trading Limited, priority 2024, dated 2025).
Blank lines part the entries; values can stand above or below the compound they belong to.

Legend:
[1] = biological target: transient receptor potential vanilloid 1/TRPV1 (Homo sapiens, UniProt Q8NER1)
[2] = biological target: TRP ankyrin 1/TRPA1 (Homo sapiens, UniProt O75762)
[3] = biological target: TRP melastatin 8/TRPM8 (Homo sapiens, UniProt Q7Z2W7)
[4] = system: TRPA1-containing neurons
[5] = when isolated; converts via isomerization into trans-bixin (β-bixin)

Chain of TRP ankyrin 1/TRPA1 (O75762 whole entry): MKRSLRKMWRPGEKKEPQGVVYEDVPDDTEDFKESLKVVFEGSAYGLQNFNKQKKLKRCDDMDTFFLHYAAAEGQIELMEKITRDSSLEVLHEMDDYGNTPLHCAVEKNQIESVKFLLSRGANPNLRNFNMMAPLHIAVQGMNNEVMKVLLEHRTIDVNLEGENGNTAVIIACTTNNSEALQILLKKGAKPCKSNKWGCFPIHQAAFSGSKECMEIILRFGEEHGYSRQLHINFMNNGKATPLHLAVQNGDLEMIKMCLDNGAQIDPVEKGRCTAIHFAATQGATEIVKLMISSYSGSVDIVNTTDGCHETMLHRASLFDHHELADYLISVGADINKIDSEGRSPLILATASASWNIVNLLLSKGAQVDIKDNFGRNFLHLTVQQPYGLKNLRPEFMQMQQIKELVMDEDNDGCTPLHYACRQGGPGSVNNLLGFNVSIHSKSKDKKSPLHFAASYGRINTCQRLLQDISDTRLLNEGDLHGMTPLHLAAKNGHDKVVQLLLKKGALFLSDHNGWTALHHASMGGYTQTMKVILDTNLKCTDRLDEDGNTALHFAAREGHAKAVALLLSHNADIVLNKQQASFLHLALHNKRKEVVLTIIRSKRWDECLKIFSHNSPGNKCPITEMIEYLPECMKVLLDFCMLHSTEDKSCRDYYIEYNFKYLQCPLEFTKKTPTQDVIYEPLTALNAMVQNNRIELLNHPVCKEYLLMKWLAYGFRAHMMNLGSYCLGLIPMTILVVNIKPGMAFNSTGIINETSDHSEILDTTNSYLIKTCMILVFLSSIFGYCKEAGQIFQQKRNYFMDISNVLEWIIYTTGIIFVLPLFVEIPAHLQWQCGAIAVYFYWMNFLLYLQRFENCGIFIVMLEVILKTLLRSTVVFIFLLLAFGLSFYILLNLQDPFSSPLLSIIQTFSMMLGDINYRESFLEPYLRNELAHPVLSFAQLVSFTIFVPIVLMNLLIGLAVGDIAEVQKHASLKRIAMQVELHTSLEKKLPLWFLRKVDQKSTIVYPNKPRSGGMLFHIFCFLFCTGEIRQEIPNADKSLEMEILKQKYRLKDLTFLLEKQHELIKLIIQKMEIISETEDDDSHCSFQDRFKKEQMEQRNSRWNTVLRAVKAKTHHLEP
Chain of transient receptor potential vanilloid 1/TRPV1 (Q8NER1 whole entry): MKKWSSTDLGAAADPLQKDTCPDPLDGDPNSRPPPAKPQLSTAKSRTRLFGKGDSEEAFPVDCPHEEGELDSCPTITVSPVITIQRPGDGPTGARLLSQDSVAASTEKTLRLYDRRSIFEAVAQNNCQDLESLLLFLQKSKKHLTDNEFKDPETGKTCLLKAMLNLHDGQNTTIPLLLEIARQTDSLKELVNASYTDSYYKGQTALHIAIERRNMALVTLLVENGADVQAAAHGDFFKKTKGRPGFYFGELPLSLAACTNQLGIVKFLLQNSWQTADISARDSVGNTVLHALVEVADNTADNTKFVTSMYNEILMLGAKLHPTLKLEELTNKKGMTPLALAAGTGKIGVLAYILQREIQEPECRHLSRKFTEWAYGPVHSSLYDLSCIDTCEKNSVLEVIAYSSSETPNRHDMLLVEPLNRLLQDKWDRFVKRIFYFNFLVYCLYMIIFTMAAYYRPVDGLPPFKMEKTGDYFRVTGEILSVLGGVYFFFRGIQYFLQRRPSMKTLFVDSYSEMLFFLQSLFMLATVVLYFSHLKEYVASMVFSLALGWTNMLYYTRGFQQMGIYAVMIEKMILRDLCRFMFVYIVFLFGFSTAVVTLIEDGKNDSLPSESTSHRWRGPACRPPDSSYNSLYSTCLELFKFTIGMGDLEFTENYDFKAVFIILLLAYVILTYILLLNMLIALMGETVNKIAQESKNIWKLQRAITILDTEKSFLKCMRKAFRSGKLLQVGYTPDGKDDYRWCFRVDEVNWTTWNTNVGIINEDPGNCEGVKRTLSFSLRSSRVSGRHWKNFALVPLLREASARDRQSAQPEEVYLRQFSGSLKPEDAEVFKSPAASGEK
Chain of TRP melastatin 8/TRPM8 (Q7Z2W7 whole entry): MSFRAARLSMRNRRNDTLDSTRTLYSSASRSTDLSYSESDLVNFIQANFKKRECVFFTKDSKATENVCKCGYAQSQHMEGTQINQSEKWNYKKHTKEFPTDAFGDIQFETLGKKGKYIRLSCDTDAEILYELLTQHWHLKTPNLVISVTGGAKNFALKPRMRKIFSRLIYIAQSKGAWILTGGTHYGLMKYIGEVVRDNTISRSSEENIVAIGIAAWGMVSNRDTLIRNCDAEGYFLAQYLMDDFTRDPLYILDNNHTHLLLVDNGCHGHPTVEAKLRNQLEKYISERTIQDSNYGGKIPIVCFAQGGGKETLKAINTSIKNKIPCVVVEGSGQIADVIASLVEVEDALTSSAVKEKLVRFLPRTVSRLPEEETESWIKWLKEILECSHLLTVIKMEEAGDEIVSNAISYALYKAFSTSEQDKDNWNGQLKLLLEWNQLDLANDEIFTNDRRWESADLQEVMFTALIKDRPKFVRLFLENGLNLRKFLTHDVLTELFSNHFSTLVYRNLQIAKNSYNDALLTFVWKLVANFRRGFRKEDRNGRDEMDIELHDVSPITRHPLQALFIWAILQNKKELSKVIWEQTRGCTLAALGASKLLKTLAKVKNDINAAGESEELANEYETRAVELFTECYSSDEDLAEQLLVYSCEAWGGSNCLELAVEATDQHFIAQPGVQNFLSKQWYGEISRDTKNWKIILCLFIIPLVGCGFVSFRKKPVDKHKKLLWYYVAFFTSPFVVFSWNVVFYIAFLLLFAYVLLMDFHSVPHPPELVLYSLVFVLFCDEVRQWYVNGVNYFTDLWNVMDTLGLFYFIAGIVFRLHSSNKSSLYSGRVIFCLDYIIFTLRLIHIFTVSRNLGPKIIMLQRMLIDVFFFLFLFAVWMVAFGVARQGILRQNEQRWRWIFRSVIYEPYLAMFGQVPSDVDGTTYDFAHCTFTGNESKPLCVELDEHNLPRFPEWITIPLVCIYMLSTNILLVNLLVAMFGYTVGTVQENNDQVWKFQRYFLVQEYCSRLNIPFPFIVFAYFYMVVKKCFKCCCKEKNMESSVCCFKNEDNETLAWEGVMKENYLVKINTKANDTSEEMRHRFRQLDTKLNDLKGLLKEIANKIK

solubility in water: water soluble
SMILES: CC(/C=C/C=C(C)/C=C/C(=O)O)=C\C=C\C=C(C)\C=C\C=C(C)\C=C\C(=O)O (stereo in doubt) [norbixin, (2E,4E,6E,8E,10E,12E,14E,16E,18E)-4,8,13,17-tetramethylicosa-2,4,6,8,10,12,14,16,18-nonaenedioic acid]

agonist activity at TRPV1 [1]: agonist
agonist activity at TRPA1 [2]: agonist
SMILES: C/C=C/C=C/C=C\CC/C=C/C(=O)NCC(C)(C)O [Hydroxyl-α-sanshool]

agonist activity at TRPM8 [3]: weak agonist
SMILES: C=CC(C)(O)CCC=C(C)C (stereo not shown) [Linalool]
stimulation of TRPA1-containing neurons [4]: shown to stimulate

solubility in water: insoluble in water
chemical stability [5]: chemically unstable when isolated
SMILES: COC(=O)/C=C/C(C)=C\C=C\C(C)=C\C=C\C=C(C)\C=C\C=C(C)\C=C\C(=O)O [bixin, (2E,4E,6E,8E,10E,12E,14E,16Z,18E)-20-methoxy-4,8,13,17-tetramethyl-20-oxoicosa-2,4,6,8,10,12,14,16,18-nonaenoic acid]
